In patent US5086049A, “7[4-(5 methyl-2-oxo-1,3-dioxalen-4-yl)methyl 1-piperzinyl]-4-oxo-4H-[1,3]thiazeto[3,2-a]quinoline-3-carboxylic acids” (Nipponshinyaku Co., Ltd., priority 1987, dated 1992):
Values after ≈ are worked out from the molar mass of the structure shown. Where two headings read alike, the source gives them in different places.

How the values were obtained:
[1] = tested on: Bacillus subtilis ATCC 6633; assay: MIC by agar plate dilution method; assay type: cell-based; details: ATCC6633, 10^6 CFU/ml, 37° C., 18 hours
Description: (§1) Test Method: In accordance with a standard method by Japan Chemotherapeutic Society [Chemotherapy, 29(1), pages 76-79, 1981], agar plate dilution method was used and the MIC was measured. Thus, bouillon for measuring sensitivity was used and the bacterial liquid cultured at 37° C. for 18 hours was diluted to an extent of 10^6 CFU/ml using said medium. This was inoculated to an agar medium containing drug for measuring sensitivity using a microplanter, cultured at 37° C. for 18 hours, and MIC was measured. Ofloxacin was used for comparison/control.
(§2) The compound of Example 2 was used as representative of the compounds of the present invention and ofloxacin was used as the Comparison/Control.

[2] = tested on: Escherichia coli N1JH JC-2; assay: MIC by agar plate dilution method; assay type: cell-based
Description: as §1, §2

[3] = tested on: Klebsiella pneumoniae NCTC 9632; assay: MIC by agar plate dilution method; assay type: cell-based
Description: as §1, §2

[4] = tested on: Proteus mirabilis IFO 3849; assay: MIC by agar plate dilution method; assay type: cell-based; details: IFO3849, 10^6 CFU/ml, 37° C., 18 hours
Description: as §1, §2

[5] = tested on: Pseudomonas aeruginosa IFO 3445; assay: MIC by agar plate dilution method; assay type: cell-based; details: IFO3445, 10^6 CFU/ml, 37° C., 18 hours
Description: as §1, §2

[6] = tested on: Serratia marcescens IFO 3736; assay: MIC by agar plate dilution method; assay type: cell-based; details: IFO3736, 10^6 CFU/ml, 37° C., 18 hours
Description: as §1, §2

[7] = tested on: Shigella flexneri 2a EW-10; assay: MIC by agar plate dilution method; assay type: cell-based; details: 2AEW10, 10^6 CFU/ml, 37° C., 18 hours
Description: as §1, §2

[8] = tested on: Staphylococcus aureus 209-P JC-1; assay: MIC by agar plate dilution method; assay type: cell-based; details: 10^6 CFU/ml, 37° C., 18 hours
Description: as §1, §2

[9] = tested on: Streptococcus pneumoniae Type I; assay: MIC by agar plate dilution method; assay type: cell-based; details: 10^6 CFU/ml, 37° C., 18 hours
Description: as §1, §2

[10] = tested on: Streptococcus pyogenes S-23; assay: MIC by agar plate dilution method; assay type: cell-based; details: S23, 10^6 CFU/ml, 37° C., 18 hours
Description: as §1, §2

[11] = tested on: E. coli KC-14; assay: Therapeutic effect on infection in mice, E. coli; assay type: in vivo, ddY strain male mice; details: E. coli KC-14, 5.1×10^4 CFU/mouse i.p.; drug orally once 2 hours after inoculation; survival after one week, Probit method
Description: (§3) Test method: E. coli KC-14 and P. aeruginosa E-2 were suspended in 5% mucin and 0.5 ml of the suspension was injected intraperitoneally to ddY strain male mice (body weight: ca. 20 g; four weeks age; 10 mice per group). The amount of the bacteria inoculated was 5.1×10^4 CFU/mouse for E. coli and 7.5×10^4 CFU/mouse for P. aeruginosa. The drug was given orally once after 2 hours of inoculation and, out of the survival rate after one week, an ED50 was calculated by a Probit method. Ofloxacin was used as the comparison/control.

[12] = tested on: P. aeruginosa E-2; assay: Therapeutic effect on infection in mice, P. aeruginosa; assay type: in vivo, ddY strain male mice; details: P. aeruginosa E-2, 7.5×10^4 CFU/mouse i.p.; drug orally once 2 hours after inoculation; survival after one week, Probit method
Description: as §3

`CC1COc2c(N3CCN(C)CC3)c(F)cc3c(=O)c(C(=O)O)cn1c23` (racemic) [Ofloxacin, reference compound] showed an MIC [1] of 0.1 µg/mL (≈ 0.277 µM), an MIC ([2]; N1JHJC2, Escherichia coli N1JH JC-2, 10^6 CFU/ml, 37° C., 18 hours, read-out: MIC) of 0.1 µg/mL (≈ 0.277 µM) and an MIC ([3]; NCTC9632, Klebsiella pneumoniae NCTC 9632, 10^6 CFU/ml, 37° C., 18 hours, read-out: MIC) of 0.05 µg/mL (≈ 0.138 µM). For the same compound, the MIC [4] was 0.39 µg/mL (≈ 1.08 µM), the MIC [5] was 1.56 µg/mL (≈ 4.32 µM) and the MIC [6] was 0.78 µg/mL (≈ 2.16 µM). It also gave an MIC [7] of 0.025 µg/mL (≈ 0.0692 µM), an MIC [8] of 0.39 µg/mL (≈ 1.08 µM) and an MIC [9] of 1.56 µg/mL (≈ 4.32 µM). For the same compound, the MIC [10] was 1.56 µg/mL (≈ 4.32 µM), the ED50 [11] was 0.011 mg/mouse and the ED50 [12] was 0.692 mg/mouse.
Compound `CCOC(=O)c1c2n(c3cc(N4CCN(Cc5oc(=O)oc5C)CC4)c(F)cc3c1=O)C(C)S2` (stereo not drawn) [Example 1, Ethyl 6-fluoro-1-methyl-7-[4-(5-methyl-2-oxo-1,3-dioxolen-4yl)methyl-1-piperazinyl]-4oxo-4H-[1,3-]thiazeto[3,2-a]quinoline-3-carboxylate] has an ED50 [12] of 0.354 mg/mouse.
With `Cc1oc(=O)oc1CN1CCN(c2cc3c(cc2F)c(=O)c(C(=O)O)c2n3C(C)S2)CC1` (stereo not drawn) [Example 2] the MIC [1] was 0.05 µg/mL (≈ 0.108 µM), the MIC ([2]; Escherichia coli, N1JHJC2, 18 h) was 0.0125 µg/mL (≈ 0.0271 µM) and the MIC ([3]; Klebsiella pneumoniae, NCTC9632, 18 h) was 0.0125 µg/mL (≈ 0.0271 µM). It also gave an MIC [4] of 0.025 µg/mL (≈ 0.0542 µM), an MIC [5] of 0.2 µg/mL (≈ 0.433 µM) and an MIC [6] of 0.2 µg/mL (≈ 0.433 µM). It also gave an MIC [7] of 0.0125 µg/mL (≈ 0.0271 µM), an MIC [8] of 0.1 µg/mL (≈ 0.217 µM) and an MIC [9] of 0.39 µg/mL (≈ 0.845 µM). It also gave an MIC [10] of 0.39 µg/mL (≈ 0.845 µM), an ED50 [11] of 0.0078 mg/mouse and an ED50 [12] of 0.154 mg/mouse.
`Cc1oc(=O)oc1CN1CCN(c2cc3c(cc2F)c(=O)c(C(=O)O)c2n3C(C)S2)CC1.Cl` (stereo not drawn) [Example 3, 6-Fluoro-1-methyl-7-[4-(5-methyl-2-oxo-1,3-dioxolen-4-yl)methyl-1-piperazinyl]-4-oxo-4H-[1,3]thiazeto[3,2-a]quinoline-3-carboxylic acid hydrochloride] showed an ED50 [11] of 0.0078 mg/mouse and an ED50 [12] of 0.125 mg/mouse.
Work on `CS(=O)(=O)O.Cc1oc(=O)oc1CN1CCN(c2cc3c(cc2F)c(=O)c(C(=O)O)c2n3C(C)S2)CC1` (stereo not drawn) [Example 4, 6-Fluoro-1-methyl-7-[4-(5-methyl-2-oxo-1,3-dioxolen-4-yl)methyl-1-piperazinyl]-4-oxo-4H-[1,3]thiazeto[3,2-a]quinoline-3-carboxylic acid methanesulfonate] yielded an ED50 [11] of 0.0078 mg/mouse and an ED50 [12] of 0.125 mg/mouse.
For `Cc1oc(=O)oc1CN1CCN(c2c(F)cc3c(=O)c(C(=O)O)c4n(c3c2F)C(C)S4)CC1` (stereo not drawn) [Example 8, 6,8-Difluoro-1-methyl-7-[4-(5-methyl-2-oxo-1,3-dioxolen-4-yl)methyl-1-piperazinyl]-4-oxo-4-[1,3]-thiazeto[3,2-a]quinoline-3-carboxylic acid], the ED50 [11] was 0.0078 mg/mouse and the ED50 [12] was 0.125 mg/mouse.
With `COc1c(N2CCN(Cc3oc(=O)oc3C)CC2)c(F)cc2c(=O)c(C(=O)O)c3n(c12)C(C)S3` (stereo not drawn) [Example 14, 6-Fluoro-8-methoxy-1-methyl-7-[4-(5-methyl-2-oxo-1,3-dioxolen-4-yl)methyl-1-piperazinyl]-4-oxo-4H-[1,3]-thiazeto[3,2-a]quinoline-3-carboxylic acid] the ED50 [11] was 0.0152 mg/mouse and the ED50 [12] was 0.427 mg/mouse.
